From US6528521B2, “Treatment of anti-depression drug-induced sexual dysfunction with apomorphine” (Tap Pharmaceutical Products, Inc., priority 2000, dated 2003)

System: male patients taking selective serotonin reuptake inhibitors
Assay: Crossover home-use trial of sublingual apomorphine in male patients taking SSRIs
Format: in vivo, human
Details: apomorphine versus placebo
Procedure: A crossover study of 1500 patients in a home-use trial of apomorphine on male patients was performed.
In the crossover study, a 2-4 week baseline period was used to evaluate subjects. After this time, during an initial four week treatment period, subjects received either a placebo or apomorphine, without knowing whether or not they had received the active medication. The dosage was either 2, 4, 5 or 6 mg. This initial treatment period was followed by a 24-96 hour washout period, in which no medication was taken. Subsequently, a second four week treatment period, subjects who previously had received apomorphine, were given a placebo, and subjects who previously had received the placebo were given apomorphine. Subject were to attempt coitus once each week after taking a single tablet of apomorphine sublingually. After each attempt, the subject and their partner completed a sexual function questionnaire which was later evaluated and used for final statistical analysis. In the analysis, the data for patients receiving 2, 4, 5 or 6 mg dosages was pooled.

In the case of `CN1CCc2cccc3c2[C@H]1Cc1ccc(O)c(O)c1-3` [apomorphine, (R)-5,6,6a,7-tetrahydro-6-methyl-4H-dibenzo-[de,g]quinoline-10,11-diol], the “patients on SSRI drugs able to have intercourse after taking apomorphine, relative to placebo” value is reported as “twice as many”.
